Measurements reported in patent publication US9994571B2, “10-substituted morphinan hydantoins” (Purdue Pharma L.P., priority 2013, dated 2018).

Key:
κ opioid receptor [1] = biological target: T1, κ opioid receptor (Homo sapiens (Human), UniProt P41145); assay: κ-opioid receptor radioligand dose-displacement binding assay ([3H]-U69,593); details: binding assays using HEK-293 cells; read-out: Opioid Receptor Ki (nM) κ
Protocol: Membranes from HEK-293 cells, CHO or U-2 OS cells expressing the recombinant human κ opioid receptor (κ) were prepared by lysing cells in ice cold hypotonic buffer (2.5 mM MgCl2, 50 mM HEPES, pH 7.4) (10 mL/10 cm dish) followed by homogenization with a tissue grinder/Teflon pestle. Membranes from a cell line naturally expressing kappa opioid receptor can also be used. Membranes were collected by centrifugation at 30,000×g for 15 min at 4° C. and pellets were resuspended in hypotonic buffer to a final concentration of 1-3 mg/mL. Protein concentrations were determined using the BioRad protein assay reagent with bovine serum albumen as standard. Aliquots of K receptor membranes were stored at −80° C.
Radioligand dose displacement assays used 0.4 nM [^3H]-U69,593 (GE Healthcare, Piscataway, N.J.; 40 Ci/mmole) with 15 μg membrane protein (recombinant κ opioid receptor expressed in HEK 293 cells; in-house prep) in a final volume of 200 μl binding buffer (5% DMSO, 50 mM Trizma base, pH 7.4). Non-specific binding was determined in the presence of 10 μM unlabeled naloxone or U69,593. All reactions were performed in 96-well polypropylene plates for 1 hour at a temperature of about 25° C. Binding reactions were terminated by rapid filtration onto 96-well Unifilter GF/C filter plates (Perkin Elmer, Shelton, Conn.) presoaked in 0.5% polyethylenimine (Sigma). Harvesting was performed using a 96-well tissue harvester (Perkin Elmer, Shelton, Conn.) followed by five filtration washes with 200 μl ice-cold binding buffer. Filter plates were subsequently dried at 50° C. for 1-2 hours. Fifty μl/well scintillation cocktail (Perkin Elmer, Shelton, Conn.) was added and plates were counted in a Packard Top-Count for 1 min/well.
(§1) In TABLE 1, binding affinity of certain Compounds of the Invention to the μ- and κ-opioid receptors was determined as described above for binding assays using HEK-293 cells.

κ opioid receptor [2] = biological target: T1, κ opioid receptor; assay: κ-opioid receptor [35S]GTPγS functional assay; format: biochemical; details: for Emax: functional assays using U-2 OS cells, relative to the effect elicited by U69,593
Protocol: Functional [^35S]GTPγS binding assays were conducted as follows. κ opioid receptor membrane solution was prepared by sequentially adding final concentrations of 0.026 μg/μl κ membrane protein (in-house), 10 μg/mL saponin, 3 μM GDP and 0.20 nM [^35S]GTPγS to binding buffer (100 mM NaCl, 10 mM MgCl2, 20 mM HEPES, pH 7.4) on ice. The prepared membrane solution (190 μl/well) was transferred to 96-shallow well polypropylene plates containing 10 μl of 20× concentrated stock solutions of agonist prepared in DMSO. Plates were incubated for 30 min at a temperature of about 25° C. with shaking. Reactions were terminated by rapid filtration onto 96-well Unifilter GF/B filter plates (Perkin Elmer, Shelton, Conn.) using a 96-well tissue harvester (Packard) and followed by three filtration washes with 200 μl ice-cold binding buffer (10 mM NaH2PO4, 10 mM Na2HPO4, pH 7.4). Filter plates were subsequently dried at 50° C. for 2-3 hours. Fifty μl/well scintillation cocktail (Perkin Elmer, Shelton, Conn.) was added and plates were counted in a Packard Top-Count for 1 min/well.
κ GTP EC50 is the concentration of a compound providing 50% of the maximal response for the compound at a K receptor.
κ GTP Emax (%) is the maximal effect elicited by a compound relative to the effect elicited by U69,593.
(§2) In TABLE 2, activity response of certain Compounds of the Invention to the μ- and κ-opioid receptors was determined as described above for functional assays using U-2 OS cells.

μ-opioid receptor [3] = biological target: T2, μ-opioid receptor (Homo sapiens (Human), UniProt P35372); assay: μ-opioid receptor [35S]GTPγS functional assay; format: biochemical; details: for Emax: functional assays using U-2 OS cells, relative to the effect elicited by DAMGO
Protocol: [^35S]GTPγS functional assays were conducted using freshly thawed μ-receptor membranes prepared in-house from a cell line expressing recombinant μ opioid receptor in a HEK-293, CHO or U-2 OS cell background, or purchased from a commercial source (Perkin Elmer, Shelton, Conn.; or DiscovRx, Fremont, Calif.). Assay reactions were prepared by sequentially adding the following reagents to binding buffer (100 mM NaCl, 10 mM MgCl2, 20 mM HEPES, pH 7.4) on ice (final concentrations indicated): membrane protein (0.026 mg/mL), saponin ([…]), GDP ([…]) and [^35S]GTPγS (0.20 nM; Perkin Elmer, Shelton, Conn.). The prepared membrane solution (190 l/well) was transferred to 96-shallow well polypropylene plates containing 10 μl of 20× concentrated stock solutions of the agonist [D-Ala^2, N-methyl-Phe^4 Gly-ol^5]-enkephalin (DAMGO) prepared in dimethyl sulfoxide (DMSO). Plates were incubated for 30 min at about 25° C. with shaking. Reactions were terminated by rapid filtration onto 96-well Unifilter GF/B filter plates (Perkin Elmer, Shelton, Conn.) using a 96-well tissue harvester (Perkin Elmer, Shelton, Conn.) followed by three filtration washes with 200 μl of ice-cold wash buffer (10 mM NaH2PO4, 10 mM Na2HPO4, pH 7.4). Filter plates were subsequently dried at 50° C. for 2-3 hours. BetaScint scintillation cocktail (Perkin Elmer, Shelton, Conn.) was added (50 μl/well) and plates were counted using a Packard Top-Count for 1 min/well. Data were analyzed using the sigmoidal dose-response curve fitting functions in GraphPad PRISM v. 3.0, or an in-house function for non-linear, sigmoidal dose-response curve-fitting.
μ GTP EC50 is the concentration of a compound providing 50% of the maximal response for the compound at a μ-opioid receptor.
μ GTP Emax (%) is the maximal effect elicited by a compound relative to the effect elicited by DAMGO, a standard μ agonist. Generally, the μ GTP Emax (%) value measures the efficacy of a compound to treat or prevent pain or other Conditions.
as §2

μ-opioid receptor [4] = biological target: T2, μ-opioid receptor; assay: μ-opioid receptor radioligand dose-displacement binding assay ([3H]-diprenorphine); details: binding assays using HEK-293 cells; read-out: Opioid Receptor Ki (nM) μ
Protocol: Radioligand dose-displacement binding assays for μ-opioid receptors used 0.3 nM [^3H]-diprenorphine (Perkin Elmer, Shelton, Conn.), with […] membrane protein/well in a final volume of 500 μl binding buffer (10 mM MgCl2, 1 mM EDTA, 5% DMSO, 50 mM HEPES, pH 7.4). Reactions were carried out in the absence or presence of increasing concentrations of unlabeled naloxone. All reactions were conducted in 96-deep well polypropylene plates for 2 hours at room temperature. Binding reactions were terminated by rapid filtration onto 96-well Unifilter GF/C filter plates (Perkin Elmer, Shelton, Conn.), presoaked in 0.5% polyethylenimine using a 96-well tissue harvester (Perkin Elmer, Shelton, Conn.) followed by performing three filtration washes with 500 μl of ice-cold binding buffer. Filter plates were subsequently dried at 50° C. for 2-3 hours. BetaScint scintillation cocktail (Perkin Elmer, Shelton, Conn.) was added (50 μl/well), and plates were counted using a Packard Top-Count for 1 min/well. The data were analyzed using the one-site competition curve fitting functions in GraphPad PRISM™ v. 3.0 or higher (San Diego, Calif.), or an in-house function for one-site competition curve-fitting.
as §1

Compound: O=C1NC(=O)[C@@]2(CC[C@@]3(O)[C@H]4C(=O)c5ccc(O)cc5[C@@]3(CCN4CC3CC3)C2)N1 [Compound 13, (4bR,4′S,8aS,9S)-11-(cyclopropylmethyl)-3,8a-dihydroxy-7,8,8a,9-tetrahydrospiro[9,4b-(epiminoethano)phenanthrene-6,4′-imidazolidine]-2′,5′,10(5H)-trione]
- Ki (κ opioid receptor [1]): 12.2 ± 0.61 nM
- EC50 (κ opioid receptor [2]): 0.00879 ± 0.00126 µM
- Emax (κ opioid receptor [2]): 106 ± 2.52%
- EC50 (μ-opioid receptor [3]): 0.0375 ± 0.00618 µM
- Emax (μ-opioid receptor [3]): 61.3 ± 5.78%
- Ki (μ-opioid receptor [4]): 472 ± 40.8 nM

Compound: CN1CC[C@]23C[C@]4(CC[C@@]2(O)[C@H]1[C@H](O)c1ccc(O)cc13)NC(=O)NC4=O [Compound 17, (4bR,4′S,8aS,9R,10R)-3,8a,10-trihydroxy-11-methyl-5,7,8,8a,9,10-hexahydrospiro[9,4b-(epiminoethano)phenanthrene-6,4′-imidazolidine]-2′,5′-dione]
- EC50 (κ opioid receptor [2]): 5.78 ± 1.1 µM
- Emax (κ opioid receptor [2]): 107 ± 1.53%
- EC50 (μ-opioid receptor [3]): 0.116 ± 0.023 µM
- Emax (μ-opioid receptor [3]): 98.8 ± 0.97%
